In ChEMBL document CHEMBL4834394, “Neobulgarones Revisited: Anti and Syn Bianthrones from an Australian Mud Dauber Wasp Nest-Associated Fungus, Penicillium sp. CMB-MD22” (J Nat Prod, 2021) one finds IC50 and Activity data, which are given here for 16 molecules.

Active and inactive are the calls of the source. The rule behind the calls is not given here.

The test system of one data set is Escherichia coli. Nature of the data set: Antibacterial activity against Escherichia coli ATCC 11775 assessed as inhibition of bacterial growth incubated for 24 hrs. The class given is functional, organism-based. Particulars: ATCC 11775, 24 h.
Another data set concerns SW-620. As to the kind of experiment: Cytotoxicity against human SW620 cells after 48 hrs by MTT assay. It counts as functional, cell-based. In general terms: Tetrazolium dyes change colour on reduction, which living cells bring about.
For the next data set, the system named is Staphylococcus aureus. As to the kind of experiment: Antibacterial activity against Staphylococcus aureus ATCC 25923 assessed as inhibition of bacterial growth incubated for 24 hrs. The class given is functional, organism-based. Particulars: ATCC 25923, 24 h.
A further data set relates to Candida albicans. Nature of the data set: Antifungal activity against Candida albicans ATCC 10231 assessed as inhibition of fungal growth incubated for 24 hrs. It counts as functional, organism-based. Particulars: ATCC 10231, 24 h.
In data set [1] the target is ATP-dependent translocase ABCB1 (Homo sapiens, UniProt P08183). Nature of the data set: Reversal of P-gp mediated doxorubicin resistance in human SW620 Ad300 cells overexpressing P-gp at 30 uM after 48 hrs by MTT assay. It counts as cell-based. Particulars: sw-620, 48 h.
ATP-dependent translocase ABCB1, sequence (P08183 whole entry): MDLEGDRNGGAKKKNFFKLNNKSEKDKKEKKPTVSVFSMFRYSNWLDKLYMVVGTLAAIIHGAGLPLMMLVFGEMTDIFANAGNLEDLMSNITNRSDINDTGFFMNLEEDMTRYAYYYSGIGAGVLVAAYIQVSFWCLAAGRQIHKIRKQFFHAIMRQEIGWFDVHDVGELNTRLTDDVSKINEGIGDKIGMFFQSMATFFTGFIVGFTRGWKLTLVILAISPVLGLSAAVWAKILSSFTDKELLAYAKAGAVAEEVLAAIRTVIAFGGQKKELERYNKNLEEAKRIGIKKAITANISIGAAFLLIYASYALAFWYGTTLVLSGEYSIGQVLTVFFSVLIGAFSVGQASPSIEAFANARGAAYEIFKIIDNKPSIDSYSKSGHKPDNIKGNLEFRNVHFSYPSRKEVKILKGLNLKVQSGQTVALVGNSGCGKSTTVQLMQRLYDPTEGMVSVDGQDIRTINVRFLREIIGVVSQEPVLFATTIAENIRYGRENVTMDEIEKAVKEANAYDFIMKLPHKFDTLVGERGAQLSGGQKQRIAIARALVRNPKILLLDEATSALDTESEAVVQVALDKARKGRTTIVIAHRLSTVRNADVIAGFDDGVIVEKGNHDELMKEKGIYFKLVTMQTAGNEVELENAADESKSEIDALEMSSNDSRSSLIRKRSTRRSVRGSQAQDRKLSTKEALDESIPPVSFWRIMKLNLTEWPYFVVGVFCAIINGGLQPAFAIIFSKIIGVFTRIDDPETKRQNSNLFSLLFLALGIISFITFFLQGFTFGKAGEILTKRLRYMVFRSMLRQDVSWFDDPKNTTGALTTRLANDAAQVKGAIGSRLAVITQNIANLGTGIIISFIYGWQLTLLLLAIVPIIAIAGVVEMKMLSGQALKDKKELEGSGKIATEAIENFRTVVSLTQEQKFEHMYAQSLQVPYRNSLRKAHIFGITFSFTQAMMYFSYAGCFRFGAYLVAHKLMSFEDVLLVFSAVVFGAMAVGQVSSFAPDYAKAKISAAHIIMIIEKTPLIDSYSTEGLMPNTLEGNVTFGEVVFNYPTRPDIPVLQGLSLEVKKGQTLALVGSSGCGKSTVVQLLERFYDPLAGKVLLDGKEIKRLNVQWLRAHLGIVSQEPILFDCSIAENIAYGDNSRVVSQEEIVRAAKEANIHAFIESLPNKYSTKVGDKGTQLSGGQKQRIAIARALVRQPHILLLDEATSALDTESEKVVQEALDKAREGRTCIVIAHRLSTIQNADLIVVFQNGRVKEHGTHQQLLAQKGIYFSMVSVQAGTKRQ

In general, IC50 refers to the midpoint of a concentration-inhibition curve.

On to `COc1cc(C)cc2c1C(=O)c1c(O)c(OC)c(O)c(Cl)c1[C@@H]2[C@H]1c2cc(C)cc(OC)c2C(=O)c2c(O)c(OC)c(O)c(Cl)c21`, for which the concentration for half-maximal inhibition (IC50) in the data set with Escherichia coli, with Staphylococcus aureus and with Candida albicans was greater than 30 µM throughout. Further, the outcome in the data set on SW-620 was inactive. Besides, the Activity entry in data set [1] was “Not Active”.
As to `COc1cc(C)cc2c1C(=O)c1c(O)c(OC)c(O)c(Cl)c1[C@@H]2[C@H]1c2cc(C)cc(OC)c2C(=O)c2c(O)cc(O)c(Cl)c21`, the half-inhibitory concentration (IC50) in the data set on Escherichia coli, in the data set with Staphylococcus aureus and in the data set on Candida albicans was greater than 30 µM each time. For the same molecule, the outcome with SW-620 was inactive. Further, the Activity result in data set [1] is listed as “Not Active”.
Consider `COc1cc(C)cc2c1C(=O)c1c(O)cc(O)cc1[C@@H]2[C@@H]1c2cc(C)cc(OC)c2C(=O)c2c(O)cc(O)c(Cl)c21`, for which the 50% inhibitory concentration (IC50) in the data set on Escherichia coli, in the data set with Staphylococcus aureus and in the data set on Candida albicans was greater than 30 µM in each case. Also, the outcome with SW-620 was inactive. Further, the Activity result in data set [1] is listed as “Not Active”.
For the molecule `COc1cc(C)cc2c1C(=O)c1c(O)cc(O)c(Cl)c1C2O` (stereo not given), the IC50 in the data set on Escherichia coli, with Staphylococcus aureus and with Candida albicans was greater than 30 µM in each case. Besides, the outcome in the data set on SW-620 was inactive. Besides, the Activity result in data set [1] is on record as “Not Active”.
With `COc1cc(C)cc2c1C(=O)c1c(cc(O)c(OC)c1O)[C@@H]2[C@@H]1c2cc(C)cc(OC)c2C(=O)c2c(O)c(OC)c(O)c(Cl)c21`, the half-maximal inhibitory concentration (IC50) in the data set with Escherichia coli, in the data set on Staphylococcus aureus and in the data set with Candida albicans was greater than 30 µM each time. Besides, the result in the data set on SW-620 was inactive. The Activity entry in data set [1] is on record as “Not Active”.
Take `COc1cc(C)cc2c1C(=O)c1c(cc(O)c(OC)c1O)[C@H]2[C@@H]1c2cc(C)cc(OC)c2C(=O)c2c(O)cc(O)c(Cl)c21`: the IC50 in the data set with Escherichia coli, in the data set on Staphylococcus aureus and in the data set on Candida albicans was greater than 30 µM each time. In the data set with SW-620, the result was inactive. Besides, in data set [1], the Activity result is recorded as “Not Active”.
For the molecule `COc1cc(C)cc2c1C(=O)c1c(O)cc(O)cc1[C@@H]2[C@@H]1c2cc(C)cc(OC)c2C(=O)c2c(O)c(OC)c(O)c(Cl)c21`, the half-maximal inhibitory concentration (IC50) in the data set on Escherichia coli, in the data set with Staphylococcus aureus and with Candida albicans was greater than 30 µM each time. Moreover, in the data set with SW-620, the outcome was inactive. The Activity result in data set [1] is on record as “Not Active”.
Consider `COc1cc(CO)cc2c1C(=O)c1c(cc(O)c(OC)c1O)C2=O`, for which the IC50 in the data set with Escherichia coli, in the data set with Staphylococcus aureus and with Candida albicans was greater than 30 µM each time. The outcome in the data set with SW-620 was inactive. The Activity result in data set [1] is reported as “Not Active”.
`COc1cc(C)cc2c1C(=O)c1c(O)cc(O)c(Cl)c1[C@@H]2[C@H]1c2cc(C)cc(OC)c2C(=O)c2c(O)cc(O)c(Cl)c21`: the half-maximal inhibitory concentration (IC50) in the data set on Escherichia coli, in the data set on Staphylococcus aureus and with Candida albicans was greater than 30 µM throughout. In the data set on SW-620, the outcome was inactive. Moreover, the Activity result in data set [1] is reported as “Not Active”.
With `COc1cc(C)cc2c1C(=O)c1c(O)cc(O)c(Cl)c1[C@@H]2[C@@H]1c2cc(C)cc(OC)c2C(=O)c2c(O)cc(O)c(Cl)c21`, the half-maximal inhibitory concentration (IC50) in the data set with Escherichia coli, in the data set with Staphylococcus aureus and with Candida albicans was greater than 30 µM throughout. Moreover, the outcome in the data set with SW-620 was inactive. The Activity result in data set [1] was “Not Active”.
Take `COc1cc(C)cc2c1C(=O)c1c(cc(O)c(OC)c1O)C2=O`: the IC50 with Escherichia coli, with Staphylococcus aureus and with Candida albicans was greater than 30 µM in each case. In addition, the outcome with SW-620 was inactive. The Activity entry in data set [1] is given as “Not Active”.
Regarding `COc1cc(C)cc2c1C(=O)c1c(O)cc(O)cc1C2=O` [1-O-METHYLEMODIN], the half-maximal inhibitory concentration (IC50) with Escherichia coli, with Staphylococcus aureus and in the data set on Candida albicans was greater than 30 µM each time. The result in the data set on SW-620 was inactive. Besides, the Activity entry in data set [1] is “Not Active”.
Consider `COc1cc(C)cc2c1C(=O)c1c(O)cc(O)c(Cl)c1[C@@H]2[C@@H]1c2cc(C)cc(OC)c2C(=O)c2c(O)c(OC)c(O)c(Cl)c21`, for which the IC50 with Escherichia coli, with Staphylococcus aureus and in the data set with Candida albicans was greater than 30 µM throughout. In addition, the outcome in the data set with SW-620 was inactive. The Activity entry in data set [1] is on record as “Not Active”.
Turning to `COc1cc(C)cc2c1C(=O)c1c(cc(O)c(OC)c1O)[C@@H]2[C@@H]1c2cc(C)cc(OC)c2C(=O)c2c(O)cc(O)c(Cl)c21`, the concentration for half-maximal inhibition (IC50) with Escherichia coli, in the data set with Staphylococcus aureus and with Candida albicans was greater than 30 µM throughout. The result with SW-620 was inactive. For the same molecule, in data set [1], the Activity entry is “Not Active”.
For the molecule `COc1cc(C)cc2c1C(=O)c1c(O)c(OC)c(O)c(Cl)c1[C@@H]2[C@@H]1c2cc(C)cc(OC)c2C(=O)c2c(O)c(OC)c(O)c(Cl)c21`, the IC50 in the data set on Escherichia coli, with Staphylococcus aureus and with Candida albicans was greater than 30 µM each time. In addition, the outcome in the data set on SW-620 was inactive. In addition, the Activity entry in data set [1] was “Not Active”.
For `COc1cc(CO)cc2c1C(=O)c1c(O)cc(O)cc1C2=O` [CARVIOLIN], the IC50 in the data set with Escherichia coli, in the data set on Staphylococcus aureus and in the data set on Candida albicans was greater than 30 µM in each case. Moreover, the result in the data set on SW-620 was inactive. Besides, in data set [1], the Activity result was “Not Active”.
